Source: ChEMBL document CHEMBL2331173, “Water-mediated interactions influence the binding of thapsigargin to sarco/endoplasmic reticulum calcium adenosinetriphosphatase” (J Med Chem, 2013)

Molecular target: Sarcoplasmic/endoplasmic reticulum calcium ATPase 1 (Oryctolagus cuniculus, UniProt P04191)
Test: Binding affinity to SERCA1a in sarcoplasmic reticulum vesicles of rabbit skeletal muscle after 2.5 to 6 mins by spectrophotometric analysis
Set-up: species or system Muscle tissue

Chain of Sarcoplasmic/endoplasmic reticulum calcium ATPase 1 (P04191 whole entry): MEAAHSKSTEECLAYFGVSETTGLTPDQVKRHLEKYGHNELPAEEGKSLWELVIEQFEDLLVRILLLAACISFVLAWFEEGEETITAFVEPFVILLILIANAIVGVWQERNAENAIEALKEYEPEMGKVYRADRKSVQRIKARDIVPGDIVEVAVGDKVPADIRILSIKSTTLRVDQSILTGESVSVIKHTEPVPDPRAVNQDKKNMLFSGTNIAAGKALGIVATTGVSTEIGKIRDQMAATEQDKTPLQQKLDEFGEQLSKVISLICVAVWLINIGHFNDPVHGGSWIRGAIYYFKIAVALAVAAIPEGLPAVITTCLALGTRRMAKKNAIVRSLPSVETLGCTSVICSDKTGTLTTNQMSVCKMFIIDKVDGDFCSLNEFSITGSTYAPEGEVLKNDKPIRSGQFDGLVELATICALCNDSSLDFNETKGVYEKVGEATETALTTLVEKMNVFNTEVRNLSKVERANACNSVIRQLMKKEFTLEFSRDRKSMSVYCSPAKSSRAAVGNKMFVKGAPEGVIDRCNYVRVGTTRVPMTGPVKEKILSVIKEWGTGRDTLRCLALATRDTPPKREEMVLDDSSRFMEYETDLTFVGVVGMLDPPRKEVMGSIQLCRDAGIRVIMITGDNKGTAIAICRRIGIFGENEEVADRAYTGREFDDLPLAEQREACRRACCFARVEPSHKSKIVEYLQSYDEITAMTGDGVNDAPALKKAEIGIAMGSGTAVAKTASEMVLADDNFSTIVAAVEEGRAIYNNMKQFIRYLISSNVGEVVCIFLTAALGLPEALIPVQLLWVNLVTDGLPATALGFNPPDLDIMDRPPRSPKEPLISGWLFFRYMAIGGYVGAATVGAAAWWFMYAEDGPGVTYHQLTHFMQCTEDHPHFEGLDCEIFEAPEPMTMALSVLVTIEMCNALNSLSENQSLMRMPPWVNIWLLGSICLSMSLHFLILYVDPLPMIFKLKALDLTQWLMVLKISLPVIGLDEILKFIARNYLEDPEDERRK

Structure (SMILES)	Kd [nM]
C/C=C(/C)C(=O)O[C@H]1C(C)=C2[C@H]([C@@H]1OC(=O)CCCCCCC)[C@@](C)(OC(=O)CCCCCCC)C[C@H](OC(=O)CCC)[C@@]1(O)[C@H]2OC(=O)[C@@]1(C)O	2.5
C/C=C(/C)C(=O)O[C@H]1C(C)=C2[C@H]([C@@H]1OC(=O)c1ccccc1)[C@@](C)(OC(C)=O)C[C@H](OC(=O)CCC)[C@@]1(O)[C@H]2OC(=O)[C@@]1(C)O	1.5
C/C=C(/C)C(=O)O[C@H]1C(C)=C2[C@H]([C@@H]1OC(=O)CCCCCCC)[C@@](C)(OC(C)=O)C[C@H](OC(=O)CCC)[C@@]1(OC(=O)CCC)[C@H]2OC(=O)[C@@]1(C)O	11
C/C=C(/C)C(=O)O[C@H]1C(C)=C2[C@H]([C@@H]1OC(=O)CCCCCCC)[C@@](C)(OC(C)=O)C[C@H](OC(=O)CCC)[C@@]1(OC(=O)CCCCC)[C@H]2OC(=O)[C@@]1(C)O	8.5
C/C=C(/C)C(=O)O[C@H]1C(C)=C2[C@H]([C@@H]1OC(=O)CCCCCCC)[C@@](C)(OC(C)=O)C[C@H](OC(=O)CCC)[C@@]1(OC(=O)C(C)C)[C@H]2OC(=O)[C@@]1(C)O	13
C/C=C(/C)C(=O)O[C@H]1C(C)=C2[C@H]([C@@H]1OC(=O)CCCCCCC)[C@@](C)(OC(C)=O)C[C@H](OC(=O)CCC)[C@@]1(OC(=O)CCCCCCC)[C@H]2OC(=O)[C@@]1(C)O	55
C/C=C(/C)C(=O)O[C@H]1C(C)=C2[C@H]([C@@H]1OC(=O)CCCCCCC)[C@@](C)(OC(C)=O)C[C@H](OC(=O)CCC)[C@@]1(OC(C)=O)[C@H]2OC(=O)[C@@]1(C)O	2.6
C/C=C(/C)C(=O)O[C@H]1C(C)=C2[C@H]([C@@H]1OC(=O)CCCCCCC)[C@@](C)(OC(C)=O)C[C@H](OC(=O)CCC)[C@@]1(O)[C@H]2O[C@H]2N=C(C)O[C@]21C	1.7
C/C=C(/C)C(=O)O[C@H]1C(C)=C2[C@H]([C@@H]1OC(=O)CCCCCCC)[C@@](C)(OC(C)=O)C[C@H](OC(=O)CCC)[C@@]1(O)[C@H]2O[C@H]2N=C(CCC)O[C@]21C	20
C/C=C(/C)C(=O)O[C@H]1C(C)=C2[C@H]([C@@H]1OC(=O)CCCCCCC)[C@@](C)(OC(C)=O)C[C@H](OC(=O)CCC)[C@@]1(O)[C@H]2O[C@H]2N=C(CCOCC)O[C@]21C	79
C/C=C(/C)C(=O)O[C@H]1C(C)=C2[C@H]([C@@H]1OC(=O)CCCCCCC)[C@@](C)(OC(C)=O)C[C@H](OC(=O)CCC)[C@]13O[C@]1(C)C(=O)O[C@@H]23	13
C/C=C(/C)C(=O)O[C@H]1C(C)=C2[C@H]([C@@H]1OC(=O)CCCCCCC)[C@@](C)(OC(C)=O)C[C@H](OC(=O)CCC)[C@@]1(O)[C@H]2O[C@H](OC(C)=O)[C@@]1(C)OC(C)=O (relative stereo)	9.4
C/C=C(/C)C(=O)O[C@H]1C(C)=C2[C@H]([C@@H]1OC(=O)CCCCCCC)[C@@](C)(OC(C)=O)C[C@H](O)[C@@]1(O)[C@H]2OC(=O)[C@@]1(C)O [DEBUTANOYLTHAPSIGARGIN]	10
C/C=C(/C)C(=O)O[C@H]1C(C)=C2[C@H]([C@@H]1OC(=O)CCCCCCC)[C@@](C)(OC(C)=O)C[C@H](OC(=O)CCC)[C@@]1(O)[C@H]2OC(=O)[C@@]1(C)O [THAPSIGARGIN]	0.2
